These are literature values, as cited in patent US20160253451A1, “METHOD OF USING A WATER-BASED PHARMACOPHORE” (KOREA UNIVERSITY, priority 2013, published 2016).

This data set has as its target streptavidin (Streptomyces avidinii, UniProt P22629). To be noted: streptavidin-biotin complex.

Sequence of streptavidin (P22629 25-183, species assumed): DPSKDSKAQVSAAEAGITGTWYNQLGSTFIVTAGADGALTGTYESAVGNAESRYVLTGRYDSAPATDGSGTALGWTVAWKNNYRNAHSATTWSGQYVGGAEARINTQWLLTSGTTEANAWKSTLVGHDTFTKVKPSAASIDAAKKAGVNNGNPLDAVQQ

With `O=C(O)CCCC[C@@H]1SC[C@@H]2NC(=O)N[C@@H]21` [biotin], the actual affinity was -18.3 kcal/mol.
